From patent publication US9150512B2, “Tricyclic lactam derivatives as 11-beta hydroxysteroid dehydrogenase inhibitors” (Janssen Pharmaceutica NV, priority 2004, dated 2015)

Assays:
hHSD1 = hHSD1 (Homo sapiens, UniProt P28845); assay: Enzymatic assay, 11b-HSD1 reductase activity (conversion of cortisone into cortisol), recombinant protein; assay type: biochemical; settings: 2 μM cortisone, 180 μM NADPH, pH 7.2, pIC50 scored, read-out: [C1] hHSD1 reductase Score
Method: The effects of compounds on 11b-HSD1 dependent conversion of cortisone into cortisol (reductase activity) was studied in a reaction mixture containing 30 mM Tris-HCl buffer pH 7.2, 180 μM NADPH, 1 mM EDTA, 2 μM cortisone, 1 μl drug and/or solvent and 11 μg recombinant protein in a final volume of 100 μl.
All incubations were performed for 45 min at 37 C in a water bath. The reaction was stopped by adding 100 μl acetonitrile containing 20 μg corticosterone as internal standard. After centrifugation, the product formation was analysed in the supernatant by HPLC on a Hypersyl BDS-C18 column using 0.05 mM ammonium acetate/methanol (50/50) as solvent. In all of the aforementioned assays, the drugs to be tested were taken from a stock solution and tested at a final concentration ranging from −10^−5M to 3·10^−9M. From the thus obtained dose response curves, the pIC50 value was calculated and scored as follows; Score 1=pIC50 value<5, Score 2=pIC50 value in the range of 5 to 6, Score 3=pIC50 value>6. (in this table NT stands for Not Tested).

11b-HSD1 = target: T1, 11b-HSD1 (Mus musculus, UniProt P50172); assay: Cellular assay, 11b-HSD1 activity in differentiated 3T3-L1 cells; assay type: cell-based; settings: 4 hour pre-incubation, pIC50 scored, read-out: [C2] HSD1 cellular 3T3-L1 Score
T1 construct: endogenous in cells; host or cells: 3T3-L1 (ATCC-CL-173), differentiated into adipocytes
T1 sequence (P50172 whole entry): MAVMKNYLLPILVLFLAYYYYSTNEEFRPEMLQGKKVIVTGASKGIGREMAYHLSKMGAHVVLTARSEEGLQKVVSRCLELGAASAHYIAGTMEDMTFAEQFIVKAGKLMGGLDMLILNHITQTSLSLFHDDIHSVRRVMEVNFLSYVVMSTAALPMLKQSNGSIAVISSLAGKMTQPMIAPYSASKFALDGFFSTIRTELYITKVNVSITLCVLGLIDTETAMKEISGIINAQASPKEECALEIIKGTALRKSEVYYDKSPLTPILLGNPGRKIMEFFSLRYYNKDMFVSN
Method: The effects on 11b-HSD1 activity was measured in differentiated 3T3-L1 cells and rat hepatocytes.
Mouse fibroblast 3T3-L1 cells (ATCC-CL-173) were seeded at a density of 16500 cells/ml in 12 well plates and grown for 7 days in DMEM medium (supplemented with 10% heat inactivated foetal calf serum, 2 mM glutamine and 25 mg gentamycin) at 37° C. in a humidified 5% CO2 atmosphere. Medium was refreshed twice a week. Fibroblasts were differentiated into adipocytes at 37° C. in a 5% CO2 humidified atmosphere in growth medium containing 2 μg/ml insulin, 55 μg/ml IBMX and 39.2 μg/ml dexamethasone.
Primary hepatocytes from male rats were seeded on normal Falcon 12 well plates at a density of 250000 cells/well and incubated for 16 hours at 37° C. in a 5% CO2 humidified atmosphere in DMEM-HAM's F12 medium containing 5% Nu-serum, 100 U/ml penicillin, 100 μg/ml streptomycin, 0.25 μg/ml amphotericin B, 50 μg/ml gentamycin sulfate, 5 μg/ml insulin and 392 ng/ml dexamethasone. Following a 4 hour pre-incubation with test compound, 0.5 μCi ^3H-cortisone or dehydrocorticosterone, was added to the 3T3-L1 cultures. One hour later, the medium was extracted on Extrelut^3-columns with 15 ml diethyl ether and the extract was analysed by HPLC as described above. The effects of JNJ-compounds on rat hepatocyte HSD1 activity was measured after an incubation period of 90 minutes with 0.5 μCi^3H-dehydrocorticosterone. Corticosterone formation was analysed by HPLC.
(§1) As for the enzymatic assays, the compounds to be tested were taken from a stock solution and tested at a final concentration ranging from −10^−5M to 3·10^−9M. From the thus obtained dose response curves, the pIC50 value was calculated and scored as follows; Score 1=pIC50 value<5, Score 2=pIC50 value in the range of 5 to 6, Score 3=pIC50 value>6. (in this table NT stands for Not Tested).

11b-HSD2 = target: T2, 11b-HSD2 (Homo sapiens, UniProt P80365); assay: Cellular assay, 11b-HSD2 activity in HepG2 cells; assay type: cell-based; settings: 4 hour pre-incubation, pIC50 scored, read-out: [C2] HSD2 cellular HepG2 Score
T2 construct: endogenous in cells; host or cells: HepG2 (ATCC HB-8065)
T2 sequence (P80365 1-405): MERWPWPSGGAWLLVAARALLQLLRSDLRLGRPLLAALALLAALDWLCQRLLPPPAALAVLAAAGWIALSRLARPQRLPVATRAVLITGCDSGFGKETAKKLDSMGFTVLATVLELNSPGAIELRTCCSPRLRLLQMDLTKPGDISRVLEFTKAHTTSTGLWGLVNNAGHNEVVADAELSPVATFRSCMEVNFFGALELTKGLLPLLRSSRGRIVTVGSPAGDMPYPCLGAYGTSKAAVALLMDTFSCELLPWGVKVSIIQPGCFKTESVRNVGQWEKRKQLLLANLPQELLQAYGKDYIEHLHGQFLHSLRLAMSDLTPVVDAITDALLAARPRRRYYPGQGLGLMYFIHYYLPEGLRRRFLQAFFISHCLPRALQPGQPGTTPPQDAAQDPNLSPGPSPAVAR
Method: The effects on 11b-HSD2 activity was studied in HepG2 and LCC-PK1-cells HepG2-cells (ATCC HB-8065) were seeded in 12 well plates at a density of 100,000 cells/ml and grown at 37° C. in a humidified 5% CO2 atmosphere in MEM-Rega-3 medium supplemented with 10% heat inactivated foetal calf serum, 2 mM L-glutamine and sodium bicarbonate). Medium was refreshed twice a week.
Following a 4 hour pre-incubation with test compound, 0.5 μCi ^3H-cortisol or corticosterone, was added to the cultures. One hour later, the medium was extracted on Extrelut^3-columns with 15 ml diethyl ether and the extract was analysed by HPLC as described above.
as §1

Chain of hHSD1 (P28845 whole entry): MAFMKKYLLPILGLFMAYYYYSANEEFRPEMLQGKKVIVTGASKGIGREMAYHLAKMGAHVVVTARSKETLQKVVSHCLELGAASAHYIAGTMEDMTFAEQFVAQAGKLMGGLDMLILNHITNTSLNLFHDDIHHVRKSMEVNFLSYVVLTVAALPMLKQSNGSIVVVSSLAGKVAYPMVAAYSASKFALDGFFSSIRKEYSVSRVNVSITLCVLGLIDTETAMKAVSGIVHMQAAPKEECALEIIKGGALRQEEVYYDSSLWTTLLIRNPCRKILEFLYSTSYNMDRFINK

| Structure (SMILES) | IC50 (hHSD1) | IC50 (11b-HSD1) | IC50 (11b-HSD2) | melting point |
| --- | --- | --- | --- | --- |
| O=C1[C@@H]2c3ccccc3CC[C@@H]2CN1C1C2CC3CC(C2)CC1C3 (some centres unmarked) [Compound 1] | 1000 to 10000 nM | 1000 to 10000 nM |  |  |
| O=C1N2CCc3ccccc3C2CN1C1C2CC3CC(C2)CC1C3 (centres unmarked) [Compound 6] | < 1000 nM | < 1000 nM | < 1000 nM |  |
| O=C1N2CCc3ccc(Br)cc3C2CN1C1C2CC3CC(C2)CC1C3 (centres unmarked) [Compound 7] | < 1000 nM | < 1000 nM |  |  |
| O=C1[C@@H]2CCc3ccccc3[C@@H]2CN1C1C2CC3CC(C2)CC1C3 (some centres unmarked) [Compound 8] | 1000 to 10000 nM | < 1000 nM | 1000 to 10000 nM |  |
| COc1ccc2c(c1)CC1C(=O)N(C3C4CC5CC(C4)CC3C5)CC1C2 (centres unmarked) [Compound 10] | < 1000 nM | < 1000 nM | > 10000 nM |  |
| O=C1N(C2C3CC4CC(C3)CC2C4)C[C@@H]2Cc3ccccc3CN12 (some centres unmarked) [Compound 11] |  | < 1000 nM |  |  |
| O=C1N(C2C3CC4CC(C3)CC2C4)CC2CCc3ccccc3N12 (centres unmarked) [Compound 13] | > 10000 nM | > 10000 nM | > 10000 nM |  |
| O=C1N(CC23CC4CC(CC(C4)C2)C3)CC2c3ccccc3CCN12 (centres unmarked) [Compound 14] | < 1000 nM | < 1000 nM | 1000 to 10000 nM |  |
| O=C1[C@H]2CCc3ccccc3[C@@H]2CN1CC12CC3CC(CC(C3)C1)C2 [Compound 15] | < 1000 nM | < 1000 nM | 1000 to 10000 nM |  |
| O=C1[C@@H]2CCc3ccccc3[C@H]2CN1Cc1ccccc1 [Compound 19] | > 10000 nM | < 1000 nM |  |  |
| O=C1C2=Cc3cccnc3CC2CN1C1C2CC3CC(C2)CC1C3 (centres unmarked) [Compound 21] | > 10000 nM | < 1000 nM |  |  |
| O=C1C2=Cc3cnccc3CC2CN1C1C2CC3CC(C2)CC1C3 (centres unmarked) [Compound 22] | 1000 to 10000 nM | < 1000 nM |  |  |
| O=C1N2CCc3c(Br)cccc3C2CN1C1C2CC3CC(C2)CC1C3 (centres unmarked) [Compound 23] | < 1000 nM | < 1000 nM | < 1000 nM |  |
| O=C1N2CCc3ccccc3C2CN1[C@H]1[C@@H]2CC3C[C@H]1C[C@](O)(C3)C2 (some centres unmarked) [Compound 24] | < 1000 nM | < 1000 nM | < 1000 nM | 235 to 237 °C |
| O=C1N2CCc3ccccc3C2CN1[C@@H]1[C@@H]2CC3C[C@H]1C[C@](O)(C3)C2 (some centres unmarked) [Compound 25] | 1000 to 10000 nM | < 1000 nM |  | 210 to 212 °C |
| O=C1[C@@H]2Cc3ccccc3C[C@@H]2CN1[C@@H]1[C@@H]2CC3C[C@H]1C[C@](O)(C3)C2 [Compound 26] | 1000 to 10000 nM | 1000 to 10000 nM | > 10000 nM |  |
| O=C1[C@@H]2Cc3cccnc3C[C@@H]2CN1[C@@H]1[C@@H]2CC3C[C@H]1C[C@](O)(C3)C2 [Compound 28] | > 10000 nM | > 10000 nM | > 10000 nM |  |
| O=C1[C@@H]2CCc3ccccc3[C@H]2CN1[C@H]1[C@@H]2CC3C[C@H]1C[C@](O)(C3)C2 [Compound 31] | < 1000 nM | < 1000 nM | < 1000 nM |  |
| O=C1[C@@H]2CCc3ccccc3[C@H]2CN1[C@H]1[C@@H]2CC3C[C@H]1C[C@](F)(C3)C2 [Compound 32] | < 1000 nM | < 1000 nM | < 1000 nM |  |
| O=C1[C@H]2Cc3cnccc3C[C@H]2CN1[C@H]1[C@@H]2CC3C[C@H]1C[C@](O)(C3)C2 [Compound 34] | 1000 to 10000 nM | 1000 to 10000 nM |  |  |

Results, then the compound that gave them:

| IC50 (hHSD1) | IC50 (11b-HSD1) | IC50 (11b-HSD2) | melting point | Structure (SMILES) |
| --- | --- | --- | --- | --- |
| < 1000 nM | < 1000 nM | 1000 to 10000 nM |  | O=C1C2Cc3ccccc3CC2CN1C1C2CC3CC(C2)CC1C3 (centres unmarked) [Compound 2] |
| < 1000 nM | < 1000 nM | < 1000 nM |  | O=C1[C@H]2CCc3ccccc3[C@@H]2CN1C1C2CC3CC(C2)CC1C3 (some centres unmarked) [Compound 3] |
| > 10000 nM | < 1000 nM | > 10000 nM |  | O=C1[C@H]2Cc3ccccc3CN2CN1C1C2CC3CC(C2)CC1C3 (some centres unmarked) [Compound 4] |
| 1000 to 10000 nM | < 1000 nM | 1000 to 10000 nM |  | O=C1N(C2C3CC4CC(C3)CC2C4)C[C@H]2Cc3ccccc3CN12 (some centres unmarked) [Compound 5] |
| 1000 to 10000 nM | < 1000 nM | 1000 to 10000 nM |  | COc1cccc2c1CC1CN(C3C4CC5CC(C4)CC3C5)C(=O)C1C2 (centres unmarked) [Compound 9] |
|  | 1000 to 10000 nM |  |  | O=C1[C@@H]2Cc3ccccc3CN2CN1C1C2CC3CC(C2)CC1C3 (some centres unmarked) [Compound 12] |
| < 1000 nM | < 1000 nM | 1000 to 10000 nM |  | O=C1[C@@H]2CCc3ccccc3[C@@H]2CN1CC12CC3CC(CC(C3)C1)C2 [Compound 16] |
| < 1000 nM | < 1000 nM | < 1000 nM |  | O=C1[C@H]2CCc3ccccc3[C@@H]2CN1C12CC3CC(CC(C3)C1)C2 [Compound 17] |
| < 1000 nM | < 1000 nM | 1000 to 10000 nM |  | O=C1[C@H]2Cc3ccsc3C[C@@H]2CN1C1C2CC3CC(C2)CC1C3 (some centres unmarked) [Compound 18] |
| 1000 to 10000 nM | < 1000 nM |  |  | O=C1[C@@H]2CCc3ccccc3[C@@H]2CN1Cc1ccccc1 [Compound 20] |
| < 1000 nM | < 1000 nM | 1000 to 10000 nM |  | O=C1[C@H]2Cc3ccccc3C[C@H]2CN1[C@H]1[C@@H]2CC3C[C@H]1C[C@](O)(C3)C2 [Compound 27] |
| > 10000 nM | > 10000 nM | > 10000 nM |  | O=C1[C@H]2Cc3cnccc3C[C@H]2CN1[C@@H]1[C@@H]2CC3C[C@H]1C[C@](O)(C3)C2 [Compound 29] |
| > 10000 nM | 1000 to 10000 nM | > 10000 nM |  | O=C1C2=Cc3cnccc3CC2CN1[C@H]1[C@@H]2CC3C[C@H]1C[C@](O)(C3)C2 (some centres unmarked) [Compound 30] |
| < 1000 nM | < 1000 nM | < 1000 nM |  | O=C1[C@@H]2CCc3ccccc3[C@@H]2CN1[C@H]1[C@@H]2CC3C[C@H]1C[C@](O)(C3)C2 [Compound 33] |
